# Values of other authors, collected in patent publication US20100210792A1, “DRUG DELIVERY” (priority 2006, published 2010).
# Conditions: Table 1 drug list
row,Compound,Hydrophobic
1,CC(C)c1c(C(=O)Nc2ccccc2)c(-c2ccccc2)c(-c2ccc(F)cc2)n1CC[C@@H](O)C[C@@H](O)CC(=O)O [Atorvastatin],YES
2,CC[C@H]1OC(=O)[C@H](C)[C@@H](O[C@H]2C[C@@](C)(OC)[C@@H](O)[C@H](C)O2)[C@H](C)[C@@H](O[C@@H]2O[C@H](C)C[C@H](N(C)C)[C@H]2O)[C@](C)(OC)C[C@@H](C)C(=O)[C@H](C)[C@@H](O)[C@]1(C)O [Clarithromycin],YES
3,COc1ccc2nc([S@@+]([O-])Cc3ncc(C)c(OC)c3C)[nH]c2c1 [Esomeprazole],YES
4,Cc1c(OCC(F)(F)F)ccnc1C[S+]([O-])c1nc2ccccc2[nH]1 (centres unmarked) [Lansoprazole],YES
5,OCCOCCN1CCN(C2=Nc3ccccc3Sc3ccccc32)CC1 [Quetiapine],YES
6,"Cc1nc2n(c(=O)c1CCN1CCC(c3noc4cc(F)ccc34)CC1)CCCC2 [Risperidone, 4-[2-[4-(6-fluorobenzo[d]isoxazol-3-yl)-1-piperidyl]ethyl]-3-methyl-2,6-diazabicyclo[4.4.0]deca-1,3-dien-5-one]",YES
7,CC(C)c1nc(N(C)S(C)(=O)=O)nc(-c2ccc(F)cc2)c1/C=C/[C@@H](O)C[C@@H](O)CC(=O)O [Rosuvastatin],YES
8,CN[C@H]1CC[C@@H](c2ccc(Cl)c(Cl)c2)c2ccccc21 [Sertradine],YES
